This note sets out measurements from paper PMC10683025, “Discovery of a Hydroxylamine-Based Brain-Penetrant EGFR Inhibitor for Metastatic Non-Small-Cell Lung Cancer” (Journal of Medicinal Chemistry, 2023).

Like-named read-outs stand apart in the source and are kept apart here.

One data set has as its target T1, YANK2 (Homo sapiens, UniProt Q9NY57).
T1 construct: purchased Eurofins DiscoverX (KINOMEScan service)
In words: KINOMEScan. To be noted: YANK2, 1 µM; read-out: Percent Control. It counts as binding.

The next data set deals with T2, PIKFYVE (Homo sapiens, UniProt Q9Y2I7).
T2 construct: purchased Eurofins DiscoverX (KINOMEScan service)
Kind of data set: KINOMEScan. The format is binding. To be noted: read-out: Percent Control.

In the next data set the target is T3, DRAK1 (Homo sapiens, UniProt Q9UEE5).
T3 construct: purchased Eurofins DiscoverX (contract assay)
T3 sequence (Q9UEE5 1-414): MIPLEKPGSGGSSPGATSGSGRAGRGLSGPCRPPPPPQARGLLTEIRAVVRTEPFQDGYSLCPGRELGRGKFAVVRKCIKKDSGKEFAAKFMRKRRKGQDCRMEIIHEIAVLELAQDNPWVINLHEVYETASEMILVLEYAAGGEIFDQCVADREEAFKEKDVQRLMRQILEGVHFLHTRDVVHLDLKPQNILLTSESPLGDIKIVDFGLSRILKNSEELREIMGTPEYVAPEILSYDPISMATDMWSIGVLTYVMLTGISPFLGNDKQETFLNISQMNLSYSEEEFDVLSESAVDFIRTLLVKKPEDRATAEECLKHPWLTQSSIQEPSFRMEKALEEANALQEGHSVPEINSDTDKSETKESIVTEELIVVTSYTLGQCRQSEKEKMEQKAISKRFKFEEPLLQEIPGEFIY
Kind of data set: KINOMEScan. The format is binding. To be noted: DRAK1, 1 μM; read-out: Percent Control.

Data set [1] concerns HER2+ breast cancer cell lines. Kind of data set: CellTiter-Glo cell viability assay. It counts as cell-based. To be noted: Homo sapiens; range over cell lines; read-out: IC50's in HER2+ breast cancer cell lines. As for the experimental part: The A431, HCC827, SK-BR-3, ZR-75–30, AU565, and Caco-2 cell lines were obtained from ATCC. The NCI-H1975 cell line was obtained from SIBS. The NCI-H3255 cell line was obtained from CoBioer. Engineered Ba/F3 cell lines were obtained from Crown Bioscience. MCKII-MDR1 cells were obtained from The Netherlands Cancer Institute. HEK293 cells were obtained from Invitrogen. A431 cells were cultured in DMEM (Life Technologies) with 10% FBS. HCC827, NCI-H1975, and AU565 cells were cultured in RPMI1640 (Invitrogen) with 10% FBS. NCI-H3255 cells were cultured in BEGM (Lonza) with 10% FBS. Ba/F3 EGFR-del E746_A750/C797S and Ba/F3 EGFR-L858R/C797S cells were cultured in RPMI (Invitrogen) with 10% FBS. SK-BR-3 cells were cultured in McCoy’s 5a (Invitrogen) with 10% FBS. ZR-75-30 cells were cultured in RPMI1640 (Invitrogen) with 20% FBS. Caco-2 and MCKII-MDR1 culture information is given in the Permeability Studies section. HEK293 cells were cultured in DMEM (Gibco) with 10% FBS, 0.1 mM NEAA, 25 mM HEPES, 100 U/mL penicillin-streptomycin, μg/mL blasticidin, and 400 μg/mL Geneticin. All cells were cultured in a humidified incubator with 5% CO2 at 37 °C.
Viability assays using A431, HCC827, NCI-H1975, NCI-H3255, Ba/F3 EGFR-del E746_A750/C797S, Ba/F3 EGFR-L858R/C797S, AU565, SK-BR-3, and ZR-75-30 cells were performed at Crown BioScience. Cells were plated into 96-well plates at 1500–7000 cells per well and dosed in triplicate (n = 3) in a nine-point, 4-fold dilution series with compounds (0.15 nM to 10 μM) in DMSO and incubated for 72 h. After 72 h, cell viability was assayed by CellTiter-Glo Luminescent Viability Assay (Promega). Dose–response curves were generated and used to calculate the IC50 values which were calculated on GraphPad Prism from the nonlinear regression equation fitted with a sigmoidal dose response and are presented as mean ± SEM.
(ATP-based viability assays read luminescence as a measure of living cells.)

For another data set, the target named is T4, ZAP70 (Homo sapiens, UniProt P43403).
T4 construct: purchased Eurofins DiscoverX (KINOMEScan service)
T4 sequence (P43403 whole entry): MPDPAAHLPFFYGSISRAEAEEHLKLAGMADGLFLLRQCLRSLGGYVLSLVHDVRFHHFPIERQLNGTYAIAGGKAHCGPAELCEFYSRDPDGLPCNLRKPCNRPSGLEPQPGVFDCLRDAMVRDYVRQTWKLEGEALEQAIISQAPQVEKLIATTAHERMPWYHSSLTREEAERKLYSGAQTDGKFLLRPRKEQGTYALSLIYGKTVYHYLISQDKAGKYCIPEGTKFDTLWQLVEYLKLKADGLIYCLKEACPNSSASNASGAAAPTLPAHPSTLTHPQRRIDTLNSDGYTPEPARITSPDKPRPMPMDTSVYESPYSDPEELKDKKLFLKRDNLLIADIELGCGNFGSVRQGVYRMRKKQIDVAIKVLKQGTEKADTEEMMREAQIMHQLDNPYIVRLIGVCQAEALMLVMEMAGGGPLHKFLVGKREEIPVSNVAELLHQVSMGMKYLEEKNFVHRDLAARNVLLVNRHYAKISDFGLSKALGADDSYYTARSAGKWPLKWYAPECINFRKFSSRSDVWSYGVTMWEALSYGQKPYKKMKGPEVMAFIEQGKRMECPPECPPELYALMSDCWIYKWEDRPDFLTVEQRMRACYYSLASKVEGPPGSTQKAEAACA
Kind of data set: KINOMEScan. It counts as binding. The settings on record: ZAP70, 1 µM; read-out: Percent Control.

Data set [2] is described as follows: Brain tissue binding by equilibrium dialysis. It counts as in vitro ADME, mouse. Here is the method: Plasma protein binding and brain tissue binding were determined by Pharmaron, Inc. using the equilibrium dialysis method. […] Following incubation, the samples were analyzed by LC-MS/MS and the concentrations of the compounds were determined in the buffer and plasma solution chambers.

Another data set deals with T5, AKT3 (Homo sapiens, UniProt Q9Y243).
T5 construct: purchased Eurofins DiscoverX (KINOMEscan)
T5 sequence (Q9Y243 whole entry): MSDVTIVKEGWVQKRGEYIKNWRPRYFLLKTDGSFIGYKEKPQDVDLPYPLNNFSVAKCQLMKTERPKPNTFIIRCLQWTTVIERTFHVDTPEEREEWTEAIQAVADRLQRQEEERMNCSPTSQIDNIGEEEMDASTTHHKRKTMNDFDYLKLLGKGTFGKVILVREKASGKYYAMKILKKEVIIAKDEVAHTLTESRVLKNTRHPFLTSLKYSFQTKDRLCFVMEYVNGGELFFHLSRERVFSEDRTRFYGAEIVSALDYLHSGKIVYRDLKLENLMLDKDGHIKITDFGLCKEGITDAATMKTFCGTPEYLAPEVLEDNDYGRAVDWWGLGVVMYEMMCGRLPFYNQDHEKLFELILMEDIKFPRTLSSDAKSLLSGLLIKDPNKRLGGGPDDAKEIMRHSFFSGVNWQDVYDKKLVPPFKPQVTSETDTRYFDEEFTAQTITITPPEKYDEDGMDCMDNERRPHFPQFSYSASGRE
In words: KINOMEScan. It counts as binding. To be noted: AKT3, 1 µM; read-out: Percent Control.

In a further data set the target is T6, CYP2C19 (Homo sapiens, UniProt P33261).
T6 construct: tissue BD Gentest; host or cells: pooled human liver microsomes
T6 sequence (P33261 whole entry): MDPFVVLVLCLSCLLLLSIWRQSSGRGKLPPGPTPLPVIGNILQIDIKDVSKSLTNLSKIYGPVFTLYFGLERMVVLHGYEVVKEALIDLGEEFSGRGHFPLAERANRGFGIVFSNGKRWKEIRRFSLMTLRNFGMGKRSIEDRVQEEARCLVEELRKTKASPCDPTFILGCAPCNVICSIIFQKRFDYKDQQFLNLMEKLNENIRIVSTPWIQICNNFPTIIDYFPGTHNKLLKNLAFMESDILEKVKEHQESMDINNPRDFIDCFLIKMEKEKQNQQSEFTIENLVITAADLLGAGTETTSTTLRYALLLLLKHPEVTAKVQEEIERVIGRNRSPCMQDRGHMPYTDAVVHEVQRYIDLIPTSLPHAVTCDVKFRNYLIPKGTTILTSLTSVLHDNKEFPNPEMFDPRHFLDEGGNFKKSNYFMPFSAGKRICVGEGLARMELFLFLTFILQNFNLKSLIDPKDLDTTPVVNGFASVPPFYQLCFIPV
In words: CYP450 inhibition in human liver microsomes. It counts as in vitro ADME.

In another data set the target is T7, WNK1 (Homo sapiens, UniProt Q9H4A3).
T7 construct: purchased Eurofins DiscoverX
T7 sequence (Q9H4A3 whole entry): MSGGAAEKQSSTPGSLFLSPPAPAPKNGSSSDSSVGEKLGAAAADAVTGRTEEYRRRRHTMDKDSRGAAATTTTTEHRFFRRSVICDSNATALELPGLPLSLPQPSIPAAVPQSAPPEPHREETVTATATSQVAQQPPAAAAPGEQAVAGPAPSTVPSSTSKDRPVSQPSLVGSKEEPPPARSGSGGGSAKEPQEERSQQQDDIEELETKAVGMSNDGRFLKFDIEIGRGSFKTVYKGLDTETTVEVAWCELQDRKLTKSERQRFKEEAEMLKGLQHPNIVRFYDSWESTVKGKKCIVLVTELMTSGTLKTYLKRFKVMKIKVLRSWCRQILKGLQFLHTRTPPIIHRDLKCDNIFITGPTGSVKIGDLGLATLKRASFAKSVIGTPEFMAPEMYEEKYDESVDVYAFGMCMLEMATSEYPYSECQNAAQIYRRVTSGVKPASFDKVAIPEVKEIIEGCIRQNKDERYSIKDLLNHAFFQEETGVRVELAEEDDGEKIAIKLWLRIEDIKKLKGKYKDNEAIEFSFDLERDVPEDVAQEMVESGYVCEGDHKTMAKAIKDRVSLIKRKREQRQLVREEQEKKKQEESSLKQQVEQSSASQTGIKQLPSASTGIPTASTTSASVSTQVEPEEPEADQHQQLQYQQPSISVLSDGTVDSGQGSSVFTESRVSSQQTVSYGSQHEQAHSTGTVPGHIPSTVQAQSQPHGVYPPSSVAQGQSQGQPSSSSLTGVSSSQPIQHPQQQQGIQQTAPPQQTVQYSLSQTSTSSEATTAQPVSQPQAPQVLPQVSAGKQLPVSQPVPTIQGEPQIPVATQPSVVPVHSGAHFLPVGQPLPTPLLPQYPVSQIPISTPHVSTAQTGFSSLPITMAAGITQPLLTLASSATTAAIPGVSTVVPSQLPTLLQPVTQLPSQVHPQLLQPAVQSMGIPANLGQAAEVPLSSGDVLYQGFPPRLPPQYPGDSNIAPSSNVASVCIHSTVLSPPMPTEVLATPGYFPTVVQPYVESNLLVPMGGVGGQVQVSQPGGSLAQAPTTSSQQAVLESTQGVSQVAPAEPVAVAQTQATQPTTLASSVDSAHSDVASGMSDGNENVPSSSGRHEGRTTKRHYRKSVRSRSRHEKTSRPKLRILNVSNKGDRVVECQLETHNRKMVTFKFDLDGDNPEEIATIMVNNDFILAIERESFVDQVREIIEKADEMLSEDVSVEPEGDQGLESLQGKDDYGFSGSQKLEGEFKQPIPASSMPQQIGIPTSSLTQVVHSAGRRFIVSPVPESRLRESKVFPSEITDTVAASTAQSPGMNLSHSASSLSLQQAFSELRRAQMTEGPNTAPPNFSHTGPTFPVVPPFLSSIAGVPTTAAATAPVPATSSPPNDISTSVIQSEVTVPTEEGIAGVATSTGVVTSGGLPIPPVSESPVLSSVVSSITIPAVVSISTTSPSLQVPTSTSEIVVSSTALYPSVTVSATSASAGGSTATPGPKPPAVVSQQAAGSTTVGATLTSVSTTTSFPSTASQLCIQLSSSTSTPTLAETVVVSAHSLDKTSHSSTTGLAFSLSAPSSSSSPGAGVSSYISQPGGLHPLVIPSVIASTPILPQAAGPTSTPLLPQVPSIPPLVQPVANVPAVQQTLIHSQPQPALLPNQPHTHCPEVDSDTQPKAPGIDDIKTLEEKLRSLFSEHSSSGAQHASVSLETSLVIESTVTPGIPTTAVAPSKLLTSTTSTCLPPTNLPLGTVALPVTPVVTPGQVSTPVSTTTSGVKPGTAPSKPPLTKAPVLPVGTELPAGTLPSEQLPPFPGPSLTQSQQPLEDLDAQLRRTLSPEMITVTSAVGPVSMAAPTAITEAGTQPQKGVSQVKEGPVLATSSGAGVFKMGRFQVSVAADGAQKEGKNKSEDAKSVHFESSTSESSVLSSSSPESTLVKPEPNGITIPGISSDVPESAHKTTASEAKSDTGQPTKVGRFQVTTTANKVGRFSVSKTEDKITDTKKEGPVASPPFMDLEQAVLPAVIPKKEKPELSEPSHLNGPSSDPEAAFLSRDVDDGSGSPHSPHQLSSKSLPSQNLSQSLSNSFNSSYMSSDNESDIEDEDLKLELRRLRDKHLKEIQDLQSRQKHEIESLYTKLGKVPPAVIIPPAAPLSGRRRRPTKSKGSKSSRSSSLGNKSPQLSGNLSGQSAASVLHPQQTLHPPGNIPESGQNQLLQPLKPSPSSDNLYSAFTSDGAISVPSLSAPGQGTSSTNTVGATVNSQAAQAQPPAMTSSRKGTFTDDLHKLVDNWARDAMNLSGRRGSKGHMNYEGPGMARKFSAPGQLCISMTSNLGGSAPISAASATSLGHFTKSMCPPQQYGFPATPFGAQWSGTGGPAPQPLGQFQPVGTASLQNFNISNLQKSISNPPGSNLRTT
Kind of data set: KINOMEScan. It counts as binding. The settings on record: WNK1, 1 µM; read-out: Percent Control.

For another data set, the target named is T8, ARK5 (Homo sapiens, UniProt O60285).
T8 construct: purchased Eurofins DiscoverX (KINOMEscan)
T8 sequence (O60285 whole entry): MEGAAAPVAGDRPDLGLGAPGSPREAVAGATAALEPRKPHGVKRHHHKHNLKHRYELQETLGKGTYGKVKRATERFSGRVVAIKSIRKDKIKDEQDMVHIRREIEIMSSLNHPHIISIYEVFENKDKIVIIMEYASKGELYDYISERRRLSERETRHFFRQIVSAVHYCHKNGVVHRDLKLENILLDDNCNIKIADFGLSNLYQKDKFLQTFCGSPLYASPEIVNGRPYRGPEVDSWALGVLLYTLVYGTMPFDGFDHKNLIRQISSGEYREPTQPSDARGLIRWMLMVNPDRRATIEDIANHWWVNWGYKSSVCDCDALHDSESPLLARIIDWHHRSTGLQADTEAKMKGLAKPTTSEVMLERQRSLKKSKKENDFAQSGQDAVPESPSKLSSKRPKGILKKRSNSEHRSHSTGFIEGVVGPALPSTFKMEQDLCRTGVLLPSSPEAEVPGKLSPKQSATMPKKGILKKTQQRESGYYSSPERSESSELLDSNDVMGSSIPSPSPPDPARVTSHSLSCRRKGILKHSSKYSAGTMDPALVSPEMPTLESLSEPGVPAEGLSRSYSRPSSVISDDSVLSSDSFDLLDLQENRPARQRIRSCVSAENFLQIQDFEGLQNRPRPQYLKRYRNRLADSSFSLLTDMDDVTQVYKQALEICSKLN
Kind of data set: KINOMEScan. To be noted: ARK5, 1 µM; read-out: Percent Control. The format is binding.

A further data set concerns the target T9, CYP2C9 (Homo sapiens, UniProt P11712).
T9 construct: tissue BD Gentest; host or cells: pooled human liver microsomes
It counts as in vitro ADME. To be noted: liver microsomes. Background: Liver microsomes are a subcellular fraction often used to study metabolism.

Another data set deals with T10, BRAF(V600E) (Homo sapiens, UniProt P15056, V600E).
T10 construct: purchased Eurofins DiscoverX (KINOMEscan)
Kind of data set: KINOMEScan. It counts as binding. To be noted: read-out: Percent Control.

Setting [3] is: CD-1, mouse, mouse brain homogenate.

T1 sequence (Q9NY57 whole entry): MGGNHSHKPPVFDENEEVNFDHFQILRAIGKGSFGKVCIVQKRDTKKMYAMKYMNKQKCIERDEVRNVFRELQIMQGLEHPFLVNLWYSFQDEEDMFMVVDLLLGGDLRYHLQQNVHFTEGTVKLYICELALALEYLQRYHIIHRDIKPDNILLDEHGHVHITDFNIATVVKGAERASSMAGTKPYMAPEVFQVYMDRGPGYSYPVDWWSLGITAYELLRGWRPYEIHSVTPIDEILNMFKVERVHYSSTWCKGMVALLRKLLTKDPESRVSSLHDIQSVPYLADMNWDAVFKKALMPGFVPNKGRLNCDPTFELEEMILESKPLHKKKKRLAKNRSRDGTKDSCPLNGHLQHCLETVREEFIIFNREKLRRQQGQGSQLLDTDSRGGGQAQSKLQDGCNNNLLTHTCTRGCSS
Excerpt for AKT3: (§1) Percent control was mapped onto the kinome tree using TREEspot.
Excerpt for ARK5: as §1
Excerpt for BRAF(V600E): as §1
Description for CYP2C19: (§2) The activities tested were CYP1A2-mediated phenacetin O-demethylation, CYP2C19-mediated (S)-mephenyotin 4′-hydroxylation, CYP2C9-mediated diclofenac 4′-hydroxylation, CYP2D6-mediated dextromethorphan O-demethylation, and CYP3A4-mediated midazolam 1′-hydroxylation. […] The reactions were initiated by adding NADPH (1 mM final concentration) after a 5 min preincubation, and the assay was run in duplicate (n = 2). Samples were analyzed by ultra-performance liquid chromatography tandem mass spectrometry (UPLC-MS/MS).
Description for CYP2C9: as §2
Excerpt for DRAK1: as §1
Excerpt for WNK1: as §1
Excerpt for YANK2: as §1
Excerpt for ZAP70: as §1

As to `COc1cc2ncnc(Nc3cccc(Cl)c3F)c2cc1OCCON1CCN(C)CC1` [Compound 9, N-(3-Chloro-2-fluorophenyl)-7-methoxy-6-(2-((4-methylpiperazin-1-yl)oxy)ethoxy)quinazolin-4-amine], the remaining binding at 1 µM at YANK2 is 93%; at PIKFYVE it was 1.6%; on DRAK1 it was 8.3%; on ZAP70, 98%; at AKT3, 68%; at WNK1 it was 100%. Also, the remaining binding at 1 µM on ARK5 was determined as 100%; at BRAF(V600E), 82%. The values for the half-inhibitory concentration (IC50) (in [1]; on CYP2C19; against CYP2C9) were 0.99 to 1.6 µM, above 30 µM and above 30 µM, respectively. The fraction unbound at 6 h, 5 μM in data set [2] (CD-1, mouse, brain homogenate, read-out: fu,brain% / %Unboundbrain) was 0.0405; in data set [2] (CD-1, mouse, mouse brain homogenate, read-out: %Unboundbrain (converted)), 0.0405. The compound also gave a recovery at 6 h, 5 μM in data set [2] (setting [3]) of 93%. Moreover, the share remaining at 6 h, 5 μM in data set [2] (setting [3]) came out at 92.6%. For the same compound, the fraction unbound at 6 h, 5 µM in data set [2] (mouse, brain homogenate, read-out: fu,brain% / %Unboundbrain) came out at 0.041.

The IC50 is the point on the concentration scale where inhibition reaches its midpoint. Usually amount remaining stands for what is left of the initial amount, in per cent. Low values mean a greater loss, high ones greater stability.
